Consider 17 compounds from patent US8551978B2 (Theravance, Inc., priority 2009, dated 2013).

SMILES strings stand for the structures. Structures can show the parent of a compound that is named as a salt. Where two headings read alike, the source gives them in different places.

One assay concerns the target hβ2 adrenergic receptor (Homo sapiens (Human), UniProt P07550). The experiment in a line: Assay for determining adrenergic receptor agonist potency (cAMP Flashplate, HEK-293 cells). The assay is classed as cell-based. The following applies: data rounded to nearest 1 nM. How it is done:
The cell monolayer was lifted with 2 mM EDTA in PBS. Cells were pelleted by centrifugation at 1,000 rpm, and cell pellets were either stored frozen at −80° C. or membranes were prepared immediately for use. cAMP assays were performed in a radioimmunoassay format using the Flashplate Adenylyl Cyclase Activation Assay System with [^125I]-cAMP (NEN SMP004, PerkinElmer Life Sciences Inc., Boston, Mass.), according to the manufacturers instructions. […] Cells were rinsed with PBS and detached in dPBS (Dulbecco's Phosphate Buffered Saline, without CaCl2 and MgCl2) containing 2 mM EDTA or Trypsin-EDTA solution (0.05% trypsin/0.53 mM EDTA). After counting cells in Coulter cell counter, cells were pelleted by centrifugation at 1,000 rpm and re-suspended in stimulation buffer containing TBMX (PerkinElmer Kit) pre-warmed to room temperature to a concentration of 1.6×10^6 to 2.8×10^6 cells/mL. About 40,000 to 80,000 cells per well were used in this assay. […] Reactions were incubated for 10 min at 37° C. and stopped by adding 100 μL of cold detection buffer containing [^125I]-cAMP (NEN SMP004, PerkinElmer Life Sciences, Boston, Mass.). […] Data were analyzed by nonlinear regression analysis with the GraphPad Prism Software package (GraphPad Software, Inc., San Diego, Calif.) with the sigmoidal equation. The Cheng-Prusoff equation (Cheng Y, and Prusoff W H., Biochemical Pharmacology, 1973, 22, 23, 3099-108) was used to calculate the EC50 values.

A further assay deals with hM3 muscarinic receptor (Homo sapiens (Human), UniProt P20309). The experiment in a line: Radioligand binding assay for muscarinic receptors ([3H]-NMS displacement, CHO cell membranes). How it is done: The cells were grown in a 5% CO2, 37° C. incubator and lifted with 2 mM EDTA in dPBS. Cells were collected by 5 minute centrifugation at 650×g, and cell pellets were either stored frozen at −80° C. or membranes were prepared immediately for use. For membrane preparation, cell pellets were resuspended in lysis buffer and homogenized with a Polytron PT-2100 tissue disrupter (Kinematica AG; 20 seconds×2 bursts). Crude membranes were centrifuged at 40,000×g for 15 minutes at 4° C. The membrane pellet was then resuspended with re-suspension buffer and homogenized again with the Polytron tissue disrupter. The protein concentration of the membrane suspension was determined by the method described in Lowry et al., 1951, […], 193, 265. All membranes were stored frozen in aliquots at −80° C. or used immediately. […] The membranes were briefly homogenized using a Polytron tissue disruptor (10 seconds) prior to assay plate addition. […] The test compounds were initially dissolved to a concentration of 400 μM in dilution buffer and then serially diluted 5× with dilution buffer to final concentrations ranging from 10 μM to […]. The order of addition and volumes added to the assay plates were as follows: 25 μL radioligand, 25 μL diluted test compound, and 50 μL membranes. Assay plates were incubated for 6 hours at 37° C. […] Filter plates were rinsed three times with wash buffer (10 mM HEPES) to remove unbound radioactivity. The plates were then air-dried and 50 μL Microscint-20 liquid scintillation fluid (PerkinElmer, Inc.) were added to each well. The plates were then counted in a PerkinElmer Topcount liquid scintillation counter (PerkinElmer, Inc.). Binding data were analyzed by nonlinear regression analysis with the GraphPad Prism Software package (GraphPad Software, Inc., San Diego, Calif.) using the one-site competition model. […] These summary statistics were then converted back to K; values for data reporting.

Assay [1] concerns MCh-induced bronchoconstriction. Put plainly: Einthoven assay: bronchoprotection against methacholine (MCh)-induced bronchoconstriction. It counts as in vivo, rat. The following applies: for inhibition in vivo at 0.1 mg: inhaled or nasal, read-out: Broncho. at 24 h. How it is done:
This assay measures the ability of a test compound to provide bronchoprotection against methacholine (MCh)-induced bronchoconstriction in a rat. Male Sprague-Dawley rats (Harlan, Indianapolis, Ind.), weighing between 200 g and 350 g, were used for all studies. Test compound or vehicle (sterile deionized water) were dosed by inhalation (1H) over a 10 min period in a pie shaped inhalation chamber (R+S Molds, San Carlos, Calif.) using 5 mL of dosing solution. […] Rats were dosed with 100 μg of test compound unless otherwise indicated. At predetermined time points, rats were anesthetized with an intraperitoneal (IP) injection of 120 mg/kg inactin (thiobutabarbital). A supplemental dose (40 mg/kg, IP) was administered if the animal responded to physical stimuli (e.g. toe pinch). The surgical site was shaved and a 1-2 cm midline incision of the ventral aspect of the neck was made. The jugular vein was isolated and cannulated with a saline-filled polyethylene catheter (PE-50) to allow IV infusion of MCh. Trachea was dissected free and cannulated with a 14G needle (#NE-014, Small Parts, Miami Lakes, Fla.). After placement of the tracheal cannula, each rat was ventilated using a respirator (Model 683, Harvard Apparatus, Inc., MA) set at a stroke volume of 1 mL/100 g body weight (but not exceeding 2.5 mL volume) and a rate of 90 strokes per minute. A T-connector was placed along the respirator expiratory tubing to allow for measurement of changes in ventilation pressure (VP) using a Biopac transducer that was connected to a Biopac […]) pre-amplifier. Body temperature was maintained at 37° C. using a heating pad. Changes in VP were recorded using the Acknowledge Data Collection Software (Santa Barbara, Calif.). Baseline values were collected for at least 2.5 min. Rats were then challenged with non-cumulative intravenous (IV) infusions of 40 and 80 μg/kg MCh. MCh was infused intravenously for 2.5 minutes from a syringe pump (sp210iw, World Precision Instruments, Inc., Sarasota, Fla.) at a rate of 2 mL/kg/min, with a 2 minute interval between the two doses of MCh. Changes in ventilation pressure (cm H2O) in treated animals are expressed as % inhibition of MCh response relative to control animals. Other bronchoconstrictors, such as histamine and acetylcholine, can be used in place of MCh in this assay. Additionally, guinea pigs can be used instead of rats. […] Inhibition greater than or equal to 30 percent at 24 h is indicative of a long duration of action.

[2] abbreviates: hM3 Muscarinic Receptor Binding, data rounded to nearest 0.1 nM.
[3] abbreviates: rat, 100 μg by inhalation, 24 h after administration.

Sequence of hM3 muscarinic receptor (P20309 whole entry): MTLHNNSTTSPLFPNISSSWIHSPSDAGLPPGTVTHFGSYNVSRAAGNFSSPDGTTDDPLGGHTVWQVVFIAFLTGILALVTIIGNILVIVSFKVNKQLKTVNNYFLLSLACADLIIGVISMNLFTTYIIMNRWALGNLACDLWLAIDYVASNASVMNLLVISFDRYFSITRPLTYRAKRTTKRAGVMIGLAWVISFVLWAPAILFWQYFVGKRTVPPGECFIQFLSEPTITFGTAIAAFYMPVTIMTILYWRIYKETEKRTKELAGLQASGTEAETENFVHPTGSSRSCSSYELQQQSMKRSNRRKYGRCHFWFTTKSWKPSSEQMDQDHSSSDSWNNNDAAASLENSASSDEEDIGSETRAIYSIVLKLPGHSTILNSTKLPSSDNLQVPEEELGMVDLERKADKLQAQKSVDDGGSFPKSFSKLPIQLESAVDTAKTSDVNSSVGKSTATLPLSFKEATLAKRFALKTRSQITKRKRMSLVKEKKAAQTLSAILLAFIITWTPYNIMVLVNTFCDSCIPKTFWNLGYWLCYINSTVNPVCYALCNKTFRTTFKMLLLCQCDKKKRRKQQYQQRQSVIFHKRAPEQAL
Sequence of hβ2 adrenergic receptor (P07550 whole entry): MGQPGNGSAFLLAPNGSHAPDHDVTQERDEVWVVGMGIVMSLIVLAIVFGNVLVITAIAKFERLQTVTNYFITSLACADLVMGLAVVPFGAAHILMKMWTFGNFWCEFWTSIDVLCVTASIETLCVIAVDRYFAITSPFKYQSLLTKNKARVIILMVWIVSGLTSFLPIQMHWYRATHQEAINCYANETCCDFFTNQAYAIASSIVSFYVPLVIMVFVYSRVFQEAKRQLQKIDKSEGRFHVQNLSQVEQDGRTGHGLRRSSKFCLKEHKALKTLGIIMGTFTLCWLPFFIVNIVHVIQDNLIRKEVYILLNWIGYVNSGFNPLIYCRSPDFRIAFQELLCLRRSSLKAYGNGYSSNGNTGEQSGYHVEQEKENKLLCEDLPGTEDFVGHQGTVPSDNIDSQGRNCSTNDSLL

In turn, `CN(C(=O)CCN1CCC(OC(=O)Nc2ccccc2-c2ccccc2)CC1)c1ccc(CC(=O)NCc2ccc(CCNC[C@H](O)c3ccc(O)c4[nH]c(=O)ccc34)cc2)cc1` [Compound I-64] registered an EC50 on hβ2 adrenergic receptor of 1 nM. The same compound gave a Ki at hM3 muscarinic receptor (setting [2]) of 0.3 nM. In assay [1] (setting [3]), the “Broncho. at 24 h” value is on record as “No”.
On hβ2 adrenergic receptor, `CC(Cc1ccc(F)c(CC(=O)NCc2ccc(N(C)C(=O)CCN3CCC(OC(=O)Nc4ccccc4-c4ccccc4)CC3)cc2)c1)NC[C@H](O)c1ccc(O)c2[nH]c(=O)ccc12` (stereo partly drawn) [Compound I-95] showed an EC50 of 1 nM. Also, the Ki at hM3 muscarinic receptor is 0.2 nM. The inhibition in vivo at 0.1 mg in assay [1] (setting [3]) is > 30%.
On to `CN(CCCC(=O)Nc1cccc(CCNC[C@H](O)c2ccc(O)c3[nH]c(=O)ccc23)c1)C(=O)CCN1CCC(OC(=O)Nc2ccccc2-c2ccccc2)CC1` [Compound I-7, Biphenyl-2-ylcarbamic Acid 1-(2-{[3-(3-{2-[(R)-2-Hydroxy-2-(8-hydroxy-2-oxo-1,2-dihydroquinolin-5-yl)ethylamino]ethyl}phenylcarbamoyl)-propyl]methylcarbamoyl}ethyl)piperidin-4-yl Ester Ditrifluoroacetic Acid Salt], for which the 50% effective concentration (EC50) on hβ2 adrenergic receptor amounted to 1 nM. Moreover, at hM3 muscarinic receptor, the Ki was found to be 0.1 nM. Further, the inhibition in vivo at 0.1 mg in assay [1] (Rattus norvegicus, 24 h) was > 30%.
On hβ2 adrenergic receptor, `CN(C(=O)CCN1CCC(OC(=O)Nc2ccccc2-c2ccccc2)CC1)c1cccc(C(=O)Nc2cccc(CCNC[C@H](O)c3ccc(O)c4[nH]c(=O)ccc34)c2)c1` [Compound I-32] displayed a 50% effective concentration (EC50) of 1 nM. The same compound displayed a Ki at hM3 muscarinic receptor of 0.1 nM. Moreover, the “Broncho. at 24 h” value in assay [1] (setting [3]) is given as “No”.
Consider `COc1ccc(CC(=O)NCc2ccc(N(C)C(=O)CCN3CCC(OC(=O)Nc4ccccc4-c4ccccc4)CC3)cc2)cc1CC(C)NC[C@H](O)c1ccc(O)c2[nH]c(=O)ccc12` (stereo partly drawn) [Compound I-81], for which the EC50 at hβ2 adrenergic receptor came out at 1 nM. For the same compound, the Ki on hM3 muscarinic receptor (setting [2]) was determined as 0.1 nM. Moreover, in assay [1] (setting [3]), the inhibition in vivo at 0.1 mg is > 30%.
Regarding `COc1cc(NC(=O)CCCCN(C)C(=O)CCN2CCC(OC(=O)Nc3ccccc3-c3ccccc3)CC2)c(Cl)cc1CNC[C@H](O)c1ccc(O)c2[nH]c(=O)ccc12` [Compound I-19], the 50% effective concentration (EC50) on hβ2 adrenergic receptor came out at 1 nM. Further, the Ki on hM3 muscarinic receptor is 0.1 nM. In addition, in assay [1] (setting [3]), the inhibition in vivo at 0.1 mg was > 30%.
In the same order, the values of `CN(CCCCC(=O)Nc1ccc(CCNC[C@H](O)c2ccc(O)c3[nH]c(=O)ccc23)cc1)C(=O)CCN1CCC(OC(=O)Nc2ccccc2-c2ccccc2)CC1` [Compound I-21] are 1 nM, 0.1 nM and > 30%.
In the same order, the values of `C[C@@H](Cc1ccc(CCNC(=O)Cc2ccc(N(C)C(=O)CCN3CCC(OC(=O)Nc4ccccc4-c4ccccc4)CC3)cc2)cc1)NC[C@H](O)c1ccc(O)c2[nH]c(=O)ccc12` [Compound I-89] are 1 nM, 0.1 nM and > 30%.
For the compound `CN(CCCCC(=O)Nc1ccc(CNC[C@H](O)c2ccc(O)c3[nH]c(=O)ccc23)cc1)C(=O)CCN1CCC(OC(=O)Nc2ccccc2-c2ccccc2)CC1` [Compound I-14, Biphenyl-2-ylcarbamic Acid 1-(2-{[4-(4-{[(R)-2-hydroxy-2-(8-hydroxy-2-oxo-1,2-dihydroquinolin-5-yl)ethylamino]methyl}phenylcarbamoyl)-butyl]methylcarbamoyl}ethyl)piperidin-4-yl Ester Ditrifluoroacetic Acid Salt], on hβ2 adrenergic receptor, the EC50 was found to be 1 nM. In addition, on hM3 muscarinic receptor, the affinity corresponds to a Ki of 0.1 nM. For the same compound, the inhibition in vivo at 0.1 mg in assay [1] (Rattus norvegicus, 24 h) is > 30%.
As for `C[C@H](Cc1cccc(CC(=O)NCCCCN(C)C(=O)CCN2CCC(OC(=O)Nc3ccccc3-c3ccccc3)CC2)c1)NC[C@H](O)c1ccc(O)c2[nH]c(=O)ccc12` [Compound I-23], on hβ2 adrenergic receptor, the 50% effective concentration (EC50) is 1 nM. The compound also came in with a Ki on hM3 muscarinic receptor of 0.1 nM. Moreover, the inhibition in vivo at 0.1 mg in assay [1] (setting [3]) is > 30%.
In the same order, the values of `CC(Cc1cccc(NC(=O)c2cccc(N(C)C(=O)CCN3CCC(OC(=O)Nc4ccccc4-c4ccccc4)CC3)c2)c1)NC[C@H](O)c1ccc(O)c2[nH]c(=O)ccc12` (stereo partly drawn) [Compound I-36] are 1 nM, 0.2 nM and > 30%.
Regarding `Cc1cc(CNC[C@H](O)c2ccc(O)c3[nH]c(=O)ccc23)ccc1NC(=O)c1ccc(C)c(N(C)C(=O)CCN2CCC(OC(=O)Nc3ccccc3-c3ccccc3)CC2)c1` [Compound I-28], on hβ2 adrenergic receptor, the midpoint of the response, the EC50, lay at 1 nM. Moreover, at hM3 muscarinic receptor, the Ki stood at 0.2 nM. In addition, in assay [1] (setting [3]), the “Broncho. at 24 h” value is listed as “No”.
Compound `C[C@@H](Cc1cccc(CC(=O)NCCCCN(C)C(=O)CCN2CCC(OC(=O)Nc3ccccc3-c3ccccc3)CC2)c1)NC[C@H](O)c1ccc(O)c2[nH]c(=O)ccc12` [Compound I-24] displayed an EC50 at hβ2 adrenergic receptor of 1 nM. The same compound yielded a Ki at hM3 muscarinic receptor of 0.1 nM. Also, in assay [1] (setting [3]), the inhibition in vivo at 0.1 mg is > 30%.
On to `COc1cc(NC(=O)CCCN(C)C(=O)CCN2CCC(OC(=O)Nc3ccccc3-c3ccccc3)CC2)ccc1CNC[C@H](O)c1ccc(O)c2[nH]c(=O)ccc12` [Compound I-4], for which the EC50 on hβ2 adrenergic receptor was determined as 2 nM. The same compound returned a Ki on hM3 muscarinic receptor (setting [2]) of 0.1 nM. Also, in assay [1] (setting [3]), the inhibition in vivo at 0.1 mg is > 30%.
`C[C@@H](Cc1cccc(CNC(=O)Cc2ccc(N(C)C(=O)CCN3CCC(OC(=O)Nc4ccccc4-c4ccccc4)CC3)cc2)c1)NC[C@H](O)c1ccc(O)c2[nH]c(=O)ccc12` [Compound I-69] returned an EC50 on hβ2 adrenergic receptor of 1 nM. Further, the affinity at hM3 muscarinic receptor, expressed as Ki, was 0.1 nM. In assay [1] (setting [3]), the inhibition in vivo at 0.1 mg is > 30%.
In the same order, the values of `COc1cc(NC(=O)CCCCN(C)C(=O)CCN2CCC(OC(=O)Nc3ccccc3-c3ccccc3)CC2)ccc1CNC[C@H](O)c1ccc(O)c2[nH]c(=O)ccc12` [Compound I-17] are 1 nM, 0.1 nM and > 30%.
On hβ2 adrenergic receptor, `COc1cc(NC(=O)CCCN(C)C(=O)CCN2CCC(OC(=O)Nc3ccccc3-c3ccccc3)CC2)c(Cl)cc1CNC[C@H](O)c1ccc(O)c2[nH]c(=O)ccc12` [Compound I-6] came in with an EC50 of 1 nM. Also, affinity at hM3 muscarinic receptor (setting [2]) was put at a Ki of 0.1 nM. The inhibition in vivo at 0.1 mg in assay [1] (setting [3]) is > 30%.
